Assay results reported in paper PMC8037406, “Symbiotic NCR Peptide Fragments Affect the Viability, Morphology and Biofilm Formation of Candida Species” (International Journal of Molecular Sciences, 2021).
≈ marks a conversion by molar mass, not a printed value. Where two headings read alike, the source gives them in different places.

Key:
[1] = tested on: Candida albicans ATCC 10231; experiment: microbe, parasite or virus in culture; assay type: cell-based; conditions: micro-dilution, YNB medium, 4 × 10^4 cell/mL, 48 h, 30 °C, OD 620 nm, MIC = growth inhibition ≥90%, peptides 25 to 1.56 µM, fluconazole 200 to 0.78 µM, three biological repeats in triplicates; for MIC: Candida albicans, ATCC10231, read-out: Minimal inhibitory concentration, Ca ATCC 10231; on all read-outs here: key: -: no growth inhibition was observed
Description: (§1) The antifungal activity of all the 14 peptides was tested against the following opportunistic human pathogen Candida species and strains: C. albicans strains ATCC 10231, SC 5314 and SZMC 1458, C. auris 0381, C. glabrata CBS 138, C. parapsilosis CBS 604 and C. tropicalis CBS 94.
(§2) All the Candida strains (Table 4) were grown overnight in YPD medium (1% pepton, 1% dextrose, 0.5% yeast extract) at 30 °C in water bath shaker prior to each experiments. The cells were harvested by centrifugation (5 min, 3000× g) washed twice with sterile distilled water and suspended in 5-fold diluted Difco Yeast Nitrogen Base w/o Amino Acids medium (Becton, Dickinson and Company, Sparks, MD, USA) supplemented with 1% dextrose, referred to as YNB medium in the text. Cells were counted in Bürker chamber and diluted to the proper concentration.
(§3) The growth inhibition of the peptides listed in Table 1 was tested in 96-well microtiter plates on Candida strains. The minimal inhibitory concentration (MIC) was determined with the micro-dilution method by adding 5 µL serially two-fold-diluted peptide solution to 95 µL of cell suspension (4 × 10^4 cell/mL) in YNB medium. After 48 h of incubation at 30 °C the optical density of the cultures was measured at 620 nm in SPECTROstar Nano plate reader (BMG LabTech, Offenburg, Germany). Minimal inhibitory concentration was defined as growth inhibition ≥90% compared to 100% growth of the untreated control. The experiments were carried out in three biological repeats always in triplicates.

[2] = tested on: Candida albicans SC 5314; experiment: microbe, parasite or virus in culture; assay type: cell-based; conditions: micro-dilution, YNB medium, 4 × 10^4 cell/mL, 48 h, 30 °C, OD 620 nm, MIC = growth inhibition ≥90%, peptides 25 to 1.56 µM, fluconazole 200 to 0.78 µM, three biological repeats in triplicates; for MIC: Candida albicans, SC5314, read-out: Minimal inhibitory concentration, Ca SC 5314; on all read-outs here: key: -: no growth inhibition was observed
Description: as §1, §2, §3

[3] = tested on: Candida albicans SZMC 1458; experiment: microbe, parasite or virus in culture; assay type: cell-based; conditions: micro-dilution, YNB medium, 4 × 10^4 cell/mL, 48 h, 30 °C, OD 620 nm, MIC = growth inhibition ≥90%, peptides 25 to 1.56 µM, fluconazole 200 to 0.78 µM, three biological repeats in triplicates; for MIC: Candida albicans, SZMC1458, read-out: Minimal inhibitory concentration, Ca SZMC 1458; on all read-outs here: key: -: no growth inhibition was observed
Description: as §1, §2, §3

[4] = tested on: Candida auris 0381; experiment: microbe, parasite or virus in culture; assay type: cell-based; conditions: micro-dilution, YNB medium, 4 × 10^4 cell/mL, 48 h, 30 °C, OD 620 nm, MIC = growth inhibition ≥90%, peptides 25 to 1.56 µM, fluconazole 200 to 0.78 µM, three biological repeats in triplicates; for MIC: Candidozyma auris, 0381, read-out: Minimal inhibitory concentration, Cau 0381; on all read-outs here: key: -: no growth inhibition was observed
Description: as §1, §2, §3

[5] = tested on: Candida glabrata CBS 138; experiment: microbe, parasite or virus in culture; assay type: cell-based; conditions: micro-dilution, YNB medium, 4 × 10^4 cell/mL, 48 h, 30 °C, OD 620 nm, MIC = growth inhibition ≥90%, peptides 25 to 1.56 µM, fluconazole 200 to 0.78 µM, three biological repeats in triplicates; for MIC: Nakaseomyces glabratus, CBS138, read-out: Minimal inhibitory concentration, Cg CBS 138; on all read-outs here: key: -: no growth inhibition was observed
Description: as §1, §2, §3

[6] = tested on: Candida parapsilosis CBS 604; experiment: microbe, parasite or virus in culture; assay type: cell-based; conditions: micro-dilution, YNB medium, 4 × 10^4 cell/mL, 48 h, 30 °C, OD 620 nm, MIC = growth inhibition ≥90%, peptides 25 to 1.56 µM, fluconazole 200 to 0.78 µM, three biological repeats in triplicates; for MIC: Lodderomyces parapsilosis, CBS604, read-out: Minimal inhibitory concentration, Cp CBS 604; on all read-outs here: key: -: no growth inhibition was observed
Description: as §1, §2, §3

[7] = tested on: Candida tropicalis CBS 94; experiment: microbe, parasite or virus in culture; assay type: cell-based; conditions: micro-dilution, YNB medium, 4 × 10^4 cell/mL, 48 h, 30 °C, OD 620 nm, MIC = growth inhibition ≥90%, peptides 25 to 1.56 µM, fluconazole 200 to 0.78 µM, three biological repeats in triplicates; for MIC: Candida tropicalis, CBS94, read-out: Minimal inhibitory concentration, Ct CBS 94; on all read-outs here: key: -: no growth inhibition was observed
Description: as §1, §2, §3

[8] = tested on: C. auris; conditions: for FIC: FIC index = FICA + FICB; for FICA / concentration of drug A for the indicated action: checkerboard, 72 h, 30 °C; for FICA: OD 620 nm
Description: Amphotericin B, due to its high toxicity was not included in this assay.
The effects of the different combinations of fluconazole and NCR335C17–33, NCR169C17–38 or NCR169C17–38ox were determined by standard checkerboard titration method. The fluconazole was tested in a concentration range from 6.25 to 75 µM, NCR169C17–38 and NCR169C17–38ox from 0.78 to 12.50 µM, NCR335C17–33 from 1.56 to 25 µM. The initial cell concentration in each well was 4 × 10^4 cell/mL. After the incubation for 72 h at 30 °C, the optical density of the cultures was detected at 620 nm in SPECTROstar Nano plate reader (BMG LabTech, Offenburg, Germany). The inhibitory concentrations were determined for each compound alone and in combinations. The experiments were carried out at least three times. The effect of combinations was evaluated by fractional inhibitory concentration (FIC) index. FIC = FICA + FICB. FICA = (MICA in combination)/(MICA alone); FICB = (MICB in combination)/(MICB alone)

[9] = fluconazole + NCR169C17–38, C. auris
[10] = fluconazole + NCR169C17–38ox, C. auris
[11] = C. auris, drug A fluconazole + drug B NCR169C17–38
[12] = C. auris, drug A fluconazole + drug B NCR335C17–33

Molecule | Minimal inhibitory concentration, Ca ATCC 10231 [1] | Minimal inhibitory concentration, Ca SC 5314 [2] | Minimal inhibitory concentration, Ca SZMC 1458 [3] | Minimal inhibitory concentration, Cau 0381 [4] | Minimal inhibitory concentration, Cg CBS 138 [5] | Minimal inhibitory concentration, Cp CBS 604 [6] | Minimal inhibitory concentration, Ct CBS 94 [7] | also measured
C[C@@H]1[C@H](O)[C@@H](C)/C=C/C=C/C=C/C=C/C=C/C=C/C=C/[C@H](O[C@@H]2O[C@H](C)[C@@H](O)[C@H](N)[C@@H]2O)C[C@@H]2O[C@](O)(C[C@@H](O)C[C@@H](O)[C@H](O)CC[C@@H](O)C[C@@H](O)CC(=O)O[C@H]1C)C[C@H](O)[C@H]2C(=O)O [Amphotericin B, amphotericin B, reference compound] |  |  |  |  |  |  |  | MIC [1]: 3.12 µM (≈ 2.88 µg/mL); MIC [2]: 3.12 µM (≈ 2.88 µg/mL); MIC [3]: 3.12 µM (≈ 2.88 µg/mL); MIC [4]: 6.25 µM (≈ 5.78 µg/mL); MIC [5]: 1.56 µM (≈ 1.44 µg/mL); MIC [6]: 3.12 µM (≈ 2.88 µg/mL); MIC [7]: 6.25 µM (≈ 5.78 µg/mL)
OC(Cn1cncn1)(Cn1cncn1)c1ccc(F)cc1F [Fluconazole, fluconazole, reference compound] |  |  |  |  |  |  |  | MIC [1]: 200 µM (≈ 61.3 µg/mL); MIC [2]: 12.5 µM (≈ 3.83 µg/mL); MIC [3]: 1.56 µM (≈ 0.478 µg/mL); MIC [4]: 25 µM (≈ 7.66 µg/mL); MIC [5]: 200 µM (≈ 61.3 µg/mL); MIC [6]: 6.25 µM (≈ 1.91 µg/mL); MIC [7]: 100 µM (≈ 30.6 µg/mL); FIC [8, 9]: 0.625; FIC [8, 10]: 0.5; FIC ([8]; fluconazole + NCR335C17–33, C. auris, * fictitious value, could be lower): ≤ 1.125 *; FICA [8, 11]: 0.5; FICA [8, 12]: 1; concentration of drug A for the indicated action [8, 11]: 12.50 µM; concentration of drug A for the indicated action ([8]; C. auris, drug A fluconazole + drug B NCR169C17–38ox): 6.25 µM; concentration of drug A for the indicated action [8, 12]: 25 µM; Action [8, 9]: Additive; Action [8, 10]: Synergism; reduction of MIC in the synergistic combination ([8]; fluconazole + NCR169C17–38ox, C. auris, compared with single use): 4 ×; Action ([8]; fluconazole + NCR335C17–33, C. auris): Indifferent
CKTNKDCP [NCR335C9–16, NCR335C fragment 9–16] | - | - | - | - | - | - | - | 
FWGQNRNIMKHRGQ [NCR335N16–29, NCR335 N-terminal fragment, amino acids 16–29] | - | - | - | - | - | - | - | 
HFSLILSD [NCR335C1–8, NCR335C fragment 1–8] | - | - | - | - | - | - | - | 
HFSLILSDCKTNKDCP [NCR335C1–16, NCR335C fragment 1–16] | - | - | - | - | - | - | - | 
KLRRANVRCRK [NCR335C17–27, NCR335C fragment 17–27] | - | - | - | - | - | - | - | 
RLNTTFRPLNFKMLR [NCR335N1–15, NCR335 N-terminal fragment, amino acids 1–15] | - | - | - | - | - | - | - | 
